The record followed here is article PMC8789054, “The nucleotide messenger (p)ppGpp is an anti-inducer of the purine synthesis transcription regulator PurR in Bacillus” (Nucleic Acids Research, 2021).

By Kd is commonly meant the constant that tells how readily two partners part at equilibrium. A low value points to a tighter complex.

Data set [1] addresses T1, PurR (Bacillus subtilis, UniProt P37551).
T1 construct: untagged B. subtilis PurR
The data set is described as follows: DRaCALA with […]-pppGpp. The class given is binding.

The next data set deals with T2, PurR Y102A/F205A (Bacillus subtilis, UniProt P37551, Y102A/F205A).
T2 sequence (P37551 1-285 Y102A/F205A): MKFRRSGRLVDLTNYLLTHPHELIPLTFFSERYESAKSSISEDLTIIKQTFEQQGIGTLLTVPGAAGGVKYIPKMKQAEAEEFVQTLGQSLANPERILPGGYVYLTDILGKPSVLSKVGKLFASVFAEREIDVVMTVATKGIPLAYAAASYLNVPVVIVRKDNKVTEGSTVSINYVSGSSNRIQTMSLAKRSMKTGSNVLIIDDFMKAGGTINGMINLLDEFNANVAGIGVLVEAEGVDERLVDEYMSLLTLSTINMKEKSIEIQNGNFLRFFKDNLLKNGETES
In words: inhibition of PurR-DNA probe binding by PRPP (Supplementary Figure S15). The class given is biochemical.

The target in the next data set is T3, PurR Y102A/K207A (Bacillus subtilis, UniProt P37551, Y102A/K207A).
T3 sequence (P37551 1-285 Y102A/K207A): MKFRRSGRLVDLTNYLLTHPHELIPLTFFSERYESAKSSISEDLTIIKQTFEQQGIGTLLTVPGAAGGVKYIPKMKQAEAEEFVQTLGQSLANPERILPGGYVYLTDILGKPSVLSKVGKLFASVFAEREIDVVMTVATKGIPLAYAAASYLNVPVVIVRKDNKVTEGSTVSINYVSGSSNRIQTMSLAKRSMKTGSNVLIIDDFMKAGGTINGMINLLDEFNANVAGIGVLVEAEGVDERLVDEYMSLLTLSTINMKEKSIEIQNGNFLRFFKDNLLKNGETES
Described as above. In kind it is biochemical.

Data set [2] addresses T1, PurR. In words: X-ray co-crystal structure ([…] Å); DRaCALA with […]-ppGpp. The class given is binding.
Data set [3] concerns the molecule itself. The data set is described as follows: crystal structure; untagged PurR at 20 mg/ml with 1 mM ppGpp, hanging drop vapor diffusion, 0.1 M MES pH 6.5, 18% PEG 1500, room temperature; space group P1, three PurR dimers in the asymmetric unit; 2.45 Å.

Regarding `Nc1nc2c(ncn2[C@@H]2O[C@H](COP(=O)(O)OP(=O)(O)OP(=O)(O)O)[C@@H](OP(=O)(O)OP(=O)(O)O)[C@H]2O)c(=O)[nH]1` [pppGpp], the Kd at PurR [1] is roughly 4.4 µM.

Regarding `O=P(O)(O)OC[C@H]1O[C@H](OP(=O)(O)OP(=O)(O)O)[C@H](O)[C@@H]1O` [PRPP], the “inhibition of PurR-DNA probe binding by PRPP (Supplementary Figure S15)” value on PurR Y102A/F205A is “yet still bind to DNA probes and their binding to DNA is still inhibited by PRPP”; on PurR Y102A/K207A it was “yet still bind to DNA probes and their binding to DNA is still inhibited by PRPP”. Regarding `Nc1nc2c(ncn2[C@@H]2O[C@H](COP(=O)(O)OP(=O)(O)O)[C@@H](OP(=O)(O)OP(=O)(O)O)[C@H]2O)c(=O)[nH]1` [ppGpp], the Kd on PurR [2] is roughly 4.4 µM.

B1: Bacillus subtilis purine synthesis transcription regulator PurR (untagged) (natural protein, B. subtilis)
chain: MKFRRSGRLVDLTNYLLTHPHELIPLTFFSERYESAKSSISEDLTIIKQTFEQQGIGTLLTVPGAAGGVKYIPKMKQAEAEEFVQTLGQSLANPERILPGGYVYLTDILGKPSVLSKVGKLFASVFAEREIDVVMTVATKGIPLAYAAASYLNVPVVIVRKDNKVTEGSTVSINYVSGSSNRIQTMSLAKRSMKTGSNVLIIDDFMKAGGTINGMINLLDEFNANVAGIGVLVEAEGVDERLVDEYMSLLTLSTINMKEKSIEIQNGNFLRFFKDNLLKNGETES
notes: PurR, purine synthesis transcription regulator of Bacillus subtilis; Crystallised with 1 mM ppGpp; three dimers in the asymmetric unit; also called B. subtilis PurR; purine repressor PurR; source: E. coli BL21 T7 Express lacIq, purified (HisTrap FF, TEV cleavage, second HisTrap FF, Sephacryl S-200 gel filtration)
For the molecule B1, the binding result in data set [3] is on record as “binds”.
